17 compounds from patent publication EP0103381B1, “Substituted anthra(1,9-cd)pyrazol-6(2H)-ones” (WARNER-LAMBERT COMPANY, priority 1982, dated 1984) can be followed below.

Read-outs that look alike come from different tables or passages of the source.

In assay [1] the test system is lymphocytic leukemia P388. Briefly: in vivo lymphocytic leukemia P388 test. To be noted: Mus musculus, P388, ip, 720 h, two single doses four days apart, read-out: T/C × 100 (Percent); for response vs control in vivo at 1.56 mg/kg: P388, Dose 1.56 mg/kg intraperitoneally; for response vs control in vivo at 3.12 mg/kg: P388, Dose 3.12 mg/kg intraperitoneally; for response vs control in vivo at 6.25 mg/kg: P388, Dose 6.25 mg/kg intraperitoneally; for response vs control in vivo at 12.5 mg/kg: P388, Dose 12.5 mg/kg intraperitoneally; for response vs control in vivo at 25 mg/kg: P388, Dose 25 mg/kg intraperitoneally; for response vs control in vivo at 100 mg/kg: P388, Dose 100 mg/kg intraperitoneally; for response vs control in vivo at 50 mg/kg: P388, Dose 50 mg/kg intraperitoneally. Also on record: species or system mice. The protocol:
The in vivo lymphocytic leukemia P388 test is carried out by the United States National Cancer Institute. The animals used are either male or female CD2F, mice. There are six to seven animals per test group. The tumor transplant is by intraperitoneal injection of dilute ascitic fluid containing cells of lymphocytic leukemia P388. The test compounds are administered intraperitoneally in two single doses with a four-day interval between doses at various dose levels following tumor inoculation. The animals are weighed and survivors are recorded on a regular basis for 30 days. A ratio of survival time for treated (T)/ control (C) animals is calculated. The criterion for efficacy is T/C x 100 > 125%. The positive control compound in this test is 1,4-dihydroxy-5,8-[bis[[2-[(2-hydroxyethyl)amino]-ethyl]amino]-9,10-anthracene- dione given at dosages ranging from 12.0 to 0.075 mg/kg. See Cancer Chemotherapy Reports, Part 3, 3, 1 (1972) for a comprehensive discussion of the protocol.

For assay [2], the system named is Bacillus subtilis. Briefly: agar plate paper-disc inhibition zone screening. It is filed as cell-based. To be noted: read-out: Inhibition Zone Diameter mm (Dose mg/ml) B. Subtilis. The protocol:
(§1) The bacterial and yeast isolates are maintained in agar slants or in liquid media, hereby designated as inoculum media. The cultures are transferred at regular intervals in such media. (See Table for the corresponding inoculum media of each culture.) The organisms are generally transferred on to agar slants or liquid inoculum media and incubated overnight (18-20 hours): 37°C for the bacterial isolates and 28°C for the fungal cultures.
(§2) The microbial cells from the overnight agar slants are then scraped off and suspended in saline solution (0.85% NaCI). The microbial concentrations are adjusted to a light transmittancy of 20-35%, Junior Coleman Spectrophotometer (555 M). For the organisms that are maintained in liquid media, an aliquot of the culture suspension is simply diluted with saline to 20-35% light transmittancy.
(§3) The above microbial suspension serve as inocula for the assay plates. Thus, 0.16-10 ml (see Table for exact amount) are used to inoculate 100 ml of the molten-agar assay medium.
(§4) Stainless steel frames, 12.3 x 25.3 cm (ID) and glass plates, 15.3 x 31.7 cm are used to make the test trays. The frames are attached to the plates with tape at each end and the inner edges sealed with 2% agar. Twenty five ml of inoculated assay medium is spread evenly on each tray and allowed to solidify. The trays are covered, inverted, and refrigerated until used.
(§5) The compounds or samples to be tested are dissolved in suitable solvents, e.g., alcohols, dimethylsulfoxide, or N,N-dimethylformamide. The samples are generally dissolved so that the final concentration of the solvent is <10%.^* The compounds are tested at different concentrations: 3,000; 1,000; 500; 100; and 10 mcg/ml. Paper discs (12.7 mm diameter) are placed on the agar trays with forceps, then 0.08 ml of the dissolved compound is pipetted onto each disc using a 0.2 ml pipette.
(§6) The disked agar trays are incubated overnight (18-20 hours) at 37°C for the bacterial cultures and 28°C for the yeasts. The Penicillium avellaneium tray is incubated for at least […] since it is a slower- growing organism.
(§7) Active compounds show a zone of inhibition around the disc. The diameter of the zone is measured in mm. The zone diameter of active compounds ranges from a minimum of 13.5 mm to as high as 60 mm. The size of the zone diameter generally reflects the activity of the compound: the larger the zone the greater the activity.

Assay [3] concerns Streptococcus faecalis. Briefly: agar plate paper-disc inhibition zone screening. It is filed as cell-based. The conditions noted are these: Enterococcus faecalis, read-out: Inhibition Zone Diameter mm (Dose mg/ml) S. Faecalis. The protocol:
as §1, §2, §3, §4, §5, §6, §7

Assay [4] concerns Penicillium avellaneum. Kind of assay: agar plate paper-disc inhibition zone screening. The conditions noted are these: Hamigera avellanea, read-out: Inhibition Zone Diameter mm (Dose mg/ml) P. Avellaneum. The class given is cell-based. The protocol:
The Penicillium avellaneum is grown for six days, at 28°C, on an agar medium. This is to allow sporulation of the culture. The organism is then harvested by scraping off the cells from the agar surface (mycelia and spores) and suspending them in saline solution containing 0.05% Tween 80.
The suspension is adjusted to a light transmittancy of 20%. One ml of this suspension is used to inoculate 100 ml of the molten-agar assay medium.
as §4, §5, §6, §7

Regarding `NCCn1nc2c3c(c(NCCCNCCO)ccc31)C(=O)c1c(O)ccc(O)c1-2` [Example 75, 2-(2-Aminoethyl)-5-[[3-[(2-hydroxyethyl)amino]propyl]amino]-7,10-dihydroxyanthra[1,9-cd]pyrazol-6(2H)-one], in assay [1], the response vs control in vivo at 1.56 mg/kg came out at 181%, the response vs control in vivo at 3.12 mg/kg was 177% and the response vs control in vivo at 6.25 mg/kg was determined as 184%. Further, in assay [2] (Dose 0.5 mg/ml), the zone of inhibition at 500 µg/mL is 14 mm. The zone of inhibition at 3000 µg/mL in assay [3] (Dose 3.0 mg/ml) was found to be 0 mm. Besides, in assay [4] (Dose 3.0 mg/ml), the zone of inhibition at 3000 µg/mL amounted to 0 mm.

For `NCCCNCCCCNCCCNc1ccc2c3c(nn2CCNCCO)-c2c(O)ccc(O)c2C(=O)c13` [Example 69, 5-[(3-[[4-[(3-Aminopropyl)amino]butyl]amino]propyl]amino]-7,10-dihydroxy-2-[2-[(2-hydroxyethyl)-amino]ethyl]anthra(1,9-cd]pyrazol-6(2H)-one], the response vs control in vivo at 6.25 mg/kg in assay [1] was 127%.

For `NCCNCCNc1ccc2c3c(nn2CCNCCO)-c2c(O)ccc(O)c2C(=O)c13` [Example 66, 5-[[2-[(2-Aminoethyl)amino]ethyl]amino]-7,10-dihydroxy-2-[2-[(2-hydroxyethyl)amino]ethyl]anthra[1,9-cd]pyrazol-6(2H)-one], in assay [1], the response vs control in vivo at 12.5 mg/kg came to 233% and the response vs control in vivo at 25 mg/kg came out at 221%.

Take `O=C1c2c(O)ccc(O)c2-c2nn(CCCNCCO)c3ccc(NCCNCCO)c1c23` [Example 52, 7,10-Dihydroxy-5-[[2-[(2-hydroxyethyl)amino]ethyl]amino]-2-[3-((2-hydroxyethyi)amino]propyl]anthra[1,9-cd]pyrazol-6(2H)-one]: in assay [1], the response vs control in vivo at 12.5 mg/kg worked out at 157%, the response vs control in vivo at 25 mg/kg was found to be 183% and the response vs control in vivo at 100 mg/kg stood at 259%.

On to `O=C1c2c(O)c(O)cc(O)c2-c2nn(CCNCCO)c3ccc(NCCNCCO)c1c23` [Example 87, 7,8,10-Trihydroxy-2-[2-[(2-hydroxyethyl)amino]ethyl]-5-[[2-[(2-hydroxyethyl)amino]ethyl]amino]-anthra[1,9-cd]pyrazol-6(2H)-one], for which, in assay [1], the response vs control in vivo at 12.5 mg/kg was 257% and the response vs control in vivo at 25 mg/kg was 265%.

For `O=C1c2c(O)ccc(O)c2-c2nn(CCNCCO)c3ccc(NCCCN(CCO)CCO)c1c23` [Example 68], in assay [1], the response vs control in vivo at 25 mg/kg amounted to 163%, the response vs control in vivo at 50 mg/kg was determined as 167% and the response vs control in vivo at 100 mg/kg is 192%.

For the compound `CN(C)CCNCCn1nc2c3c(c(NCCNCCO)ccc31)C(=O)c1c(O)ccc(O)c1-2` [Example 50, 2-[2-[[2-(Dimethylamino)ethyl]amino]ethyl]-5-[[2-[(2-hydroxyethyl)amino]ethyl]amino]-7,10-dihydroxyanthra[1,9-cd]pyrazol-6(2H)-one], in assay [1], the response vs control in vivo at 3.12 mg/kg was 207%, the response vs control in vivo at 6.25 mg/kg stood at 188% and the response vs control in vivo at 50 mg/kg was found to be 226%.

Turning to `NCCCNc1ccc2c3c(nn2CCCNCCO)-c2c(O)ccc(O)c2C(=O)c13` [Example 53], in assay [1], the response vs control in vivo at 50 mg/kg is 160%.

As to `O=C1c2c(O)ccc(O)c2-c2nn(CC(O)CO)c3ccc(NCCNCCO)c1c23` (stereo not drawn) [Example 78, 2-(2,3-Dihydroxypropyl)-7,10-dihydroxy-5-[[2-[(2-hydroxyethyl)amino]ethyl]amino]anthra[1,9-cd]pyrazol-6(2H)-one], in assay [1], the response vs control in vivo at 25 mg/kg worked out at 184%, the response vs control in vivo at 50 mg/kg was found to be 177% and the response vs control in vivo at 100 mg/kg turned out to be 208%. In addition, the response vs control in vivo at 200 mg/kg in assay [1] (P388, Dose 200 mg/kg intraperitoneally) is 218%.

With `CSCCn1nc2c3c(c(NCCNCCO)ccc31)C(=O)c1c(O)ccc(O)c1-2` [Example 48], in assay [1], the response vs control in vivo at 6.25 mg/kg was 140% and the response vs control in vivo at 12.5 mg/kg was 132%.

For `O=C1c2c(O)ccc(O)c2-c2nn(CCNCCO)c3ccc(NCCN(CCO)CCO)c1c23` [Example 67, 5-[[2-[Bis(2-hydroxyethyl)amino]ethyl]amino]-7,10-dihydroxy-2-[2-[(2-hydroxyethyl)-amino]ethyl]anthra(1,9-cd]pyrazol-6(2H)-one], in assay [1], the response vs control in vivo at 12.5 mg/kg worked out at 158% and the response vs control in vivo at 25 mg/kg was found to be 187%.

As to `CNCCNc1ccc2c3c(nn2CCNCCO)-c2c(O)ccc(O)c2C(=O)c13` [Example 70, 7,10-Dihydroxy-2-[2-[(2-hydraxyethyl)amino]ethyl]-5-[[2-(methylamino)ethyl]amino]anthra[1,9-cd]pyrazol-6(2H)-one], in assay [1], the response vs control in vivo at 6.25 mg/kg stood at 277% and the response vs control in vivo at 12.5 mg/kg turned out to be 277%.

As to `CN(CCO)CCn1nc2c3c(c(NCCNCCO)ccc31)C(=O)c1c(O)ccc(O)c1-2` [Example 51, 7,10-Dihydroxy-5-[[2-[(2-hydroxyethyl)amino]ethyl]amino]-2-[2-[(2-hydroxyethyl)-methylamino]ethyl]anthra[1,9-cd]pyrazol-6(2H)-one], in assay [1], the response vs control in vivo at 3.12 mg/kg came to 184%, the response vs control in vivo at 6.25 mg/kg amounted to 182% and the response vs control in vivo at 12.5 mg/kg was 203%.

With `O=C1c2c(O)cc(O)c(O)c2-c2nn(CCNCCO)c3ccc(NCCNCCO)c1c23` [Example 86, 7,9,10-Trihydroxy-2-[2-[(2-hydroxyethyl)amino]ethyl]-5-[[2-[(2-hydroxyethyl)amino]lethyl]amino]-anthra[1,9-cd]pyrazol-6(2H)-one], in assay [1], the response vs control in vivo at 1.56 mg/kg came out at 155% and the response vs control in vivo at 3.12 mg/kg amounted to 165%.

In the case of `CNCCNc1ccc2c3c(nn2CCNCCO)-c2cccc(O)c2C(=O)c13` [Example 84, 7-Hydroxy-2-[2-[(2-hydroxyethyl)amino]ethyl]-5-[[2-(methylamino)ethyl]amino]anthra[1,9-cd]pyrazol-6(2H)-one], the zone of inhibition at 3000 µg/mL in assay [2] (Dose 3.0 mg/ml) is 15 mm; in assay [3] (Dose 3.0 mg/ml), 14 mm; in assay [4] (Dose 3.0 mg/ml), 0 mm.

Regarding `O=C1c2c(O)cccc2-c2nn(CCNCCO)c3ccc(NCCNCCO)c1c23` [Example 83], the zone of inhibition at 3000 µg/mL in assay [2] amounted to 14 mm; in assay [3], 0 mm; in assay [4], 0 mm.

Consider `CN(C)CCNCCNc1ccc2c3c(nn2CCCN)-c2c(O)ccc(O)c2C(=O)c13` [Example 91], for which the zone of inhibition at 3000 µg/mL in assay [2] (Dose 3.0 mg/ml) was determined as 15 mm; in assay [3] (Dose 3.0 mg/ml), 0 mm; in assay [4] (Dose 3.0 mg/ml), 0 mm.
